Test results as given in patent US20160311882A1, “Novel Compound for Treatment of Severe Hypoglycemia” (ELI LILLY AND COMPANY, priority 2013, published 2016).
Read-outs that look alike come from different tables or passages of the source. Blank lines part the entries; values can stand above or below the molecule they belong to. Non-standard residues stand in square brackets, D forms with d. Residues, ends and D or L forms follow the SMILES beside them. No end group written: not given here. Aib = CC(C)(N)C(=O)O

What was measured:
[1] = Physical stability test using Thioflavin T binding assay (fibrillation); format: physicochemical; conditions: 25° C.; for Thioflavin T fluorescence t = 0 h / Thioflavin T fluorescence t = 48 h / Thioflavin T fluorescence t = 96 h: 1 mg/mL, stirred 300 rpm
Description: Fibrillation is a common problem when glucagon is formulated in aqueous solution. To assess the level of fibrillation of the compound of the present invention, a Thioflavin T binding assay is performed.
All samples are mechanically stressed at 25° C. in a magnetic stir plate set at 300 rpm. […] Raw data is collected with Softmax Pro 5.4.1 (Molecular Devices) and imported to Excel.

[2] = Chemical stability by RP-HPLC (% main peak); format: physicochemical; conditions: for 4° C. % Main Peak / 30° C. % Main Peak / 40° C. % Main Peak: 4 weeks
Description: (§1) The compound of SEQ ID NO: 2 is dissolved in H2O to a 10 mg/mL concentration (peptide content), filtered through a 0.22 μm filter (Millex, SLGV004SL), and then diluted to 1 mg/mL in Buffer P5 (10 mM Histidine, 150 mM NaCl in H20, pH 5.0) or Buffer P6 (10 mM Histidine, 150 mM NaCl in H20, pH 6.0). Each solution is transferred to three vials and autoclaved. Samples are then maintained at 4° C., 30° C. and 40° C. Samples are visually assessed at different time points for turbidity and phase separation. Stability of the compound is assessed by analytical reverse phase HPLC (RP-HPLC) on a Phenomenex Aeris Widepore, 3.6 μm, XB-C18 4.6×100 mm column (P/NO 00D-4482-E0) heated at 60° C. with a AB (A=0.05% TFA/H2O; B=0.04% TFA/acetonitrile) gradient of 5% B isocratic over 5 min, 5 to 25% B over 20 minutes, 25 to 30% B over 30 min, and 30 to 45% B over 10 min with a flow rate of 1.2 mL/min (wavelength of 220 ηm).
The compound of SEQ ID NO: 2 also maintains chemical stability at pH 5 (Buffer P5) and pH 6 (Buffer P6) when maintained at 4° C., 30° C. and 40° C. for 4 weeks.

[3] = format: physicochemical
Description: as §1

blood glucose levels = test: Effects of compound on blood glucose levels in C57/Bl6 male mice; format: in vivo; conditions: for Blood glucose levels: mean ± SEM of 4 mice
Description: To determine the effects of the compound of SEQ ID NO: 2 on blood glucose levels, the compound is administered to C57/B 16 mice. Three month old male C57BL6 mice (Harlan Laboratories) are used Animals are individually housed in a temperature-controlled (24° C.) facility with a 12 hour light/dark cycle, and have free access to food and water. After 1 week acclimation to the facility, mice are randomized to treatment groups (n=4/group). Test compound is formulated in Buffer 2 (see Physical stability test using Thioflavin T binding assay). On the morning of test, food is removed at 08:00 AM. Two hours after food is removed, the test compound is given subcutaneously at 0, 0.3, 1, 3 or 10 μg/kg doses. Blood glucose is measured at time 0, 15, 30, 60 and 120 minutes after test compound administration with an ACCU-CHECK® (Roche Diagnostics) glucometer. […] Results are expressed as mean±standard error mean (SEM) of 4 mice per group.
Blood glucose levels at 10 μg/kg of compound of SEQ ID NO: 2 is taken as the maximum value.

[4] = biological target: T1, human glucagon receptor (hGR) (human, UniProt P47871 26-477); test: SPA competition against 125I-labelled glucagon on 293HEK hGR membranes, Cheng-Prusoff
T1 construct: whole, on cells; The cAMP assay used whole cells of the same line
Description: Plates are sealed, mixed end over end, and read with a MicroBeta® scintillation counter after 12 hours of settling time at room temperature.

[5] = biological target: T1, human glucagon receptor (hGR); test: cell-based or functional assay
[6] = biological target: T2, mouse glucagon receptor (mGR) (mouse, UniProt Q61606 27-485); test: SPA competition against 125I-labelled glucagon on 293HEK mGR membranes, Cheng-Prusoff
T2 construct: whole, on cells; Assay used crude plasma membranes of the expressing 293HEK cells

[7] = biological target: T3, human glucose-dependent insulinotropic peptide receptor (GIP-R) (human, UniProt P48546 22-466); test: SPA competition against radioiodinated GIP on CHO-S human GIP-R membranes, Cheng-Prusoff
T3 construct: whole, on cells; Assay used crude plasma membranes of the expressing CHO-S cells; also called human GIP-R; hGIP-R
T3 sequence (looked up): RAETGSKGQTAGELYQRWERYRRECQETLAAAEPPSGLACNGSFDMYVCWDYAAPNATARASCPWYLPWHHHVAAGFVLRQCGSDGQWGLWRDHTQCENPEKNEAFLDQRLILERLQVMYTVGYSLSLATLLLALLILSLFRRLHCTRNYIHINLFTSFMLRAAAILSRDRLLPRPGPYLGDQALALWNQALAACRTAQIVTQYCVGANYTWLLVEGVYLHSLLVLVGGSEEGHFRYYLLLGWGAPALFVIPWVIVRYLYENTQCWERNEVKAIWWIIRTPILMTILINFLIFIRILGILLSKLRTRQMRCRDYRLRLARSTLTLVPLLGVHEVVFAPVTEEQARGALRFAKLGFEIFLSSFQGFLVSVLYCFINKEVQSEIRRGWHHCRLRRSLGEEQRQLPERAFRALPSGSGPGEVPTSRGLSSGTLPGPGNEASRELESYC

[8] = biological target: T4, human glucagon-like peptide 1 receptor (hGLP-1R) (human, UniProt P43220 24-463); test: SPA competition against 125I-labelled GLP-1 amide on 293HEK hGLP-1R membranes, Cheng-Prusoff
T4 construct: whole, on cells; Assay used crude plasma membranes of the expressing 293HEK cells

[9] = Buffer 1 (20 mM Histidine, pH 6.0)
[10] = Buffer 2 (10 mM Histidine, 150 nM NaCl, pH 6.0)
[11] = Buffer 3 (10 mM Histidine, 300 mM sorbitol, pH 6.0)
[12] = Buffer 4 (10 mM Histidine, 0.02% Tween 80, pH 6.0)
[13] = Buffer 5 (10 mM Histidine, 300 mM sucrose, pH 6.0)

T1 sequence (P47871 26-477): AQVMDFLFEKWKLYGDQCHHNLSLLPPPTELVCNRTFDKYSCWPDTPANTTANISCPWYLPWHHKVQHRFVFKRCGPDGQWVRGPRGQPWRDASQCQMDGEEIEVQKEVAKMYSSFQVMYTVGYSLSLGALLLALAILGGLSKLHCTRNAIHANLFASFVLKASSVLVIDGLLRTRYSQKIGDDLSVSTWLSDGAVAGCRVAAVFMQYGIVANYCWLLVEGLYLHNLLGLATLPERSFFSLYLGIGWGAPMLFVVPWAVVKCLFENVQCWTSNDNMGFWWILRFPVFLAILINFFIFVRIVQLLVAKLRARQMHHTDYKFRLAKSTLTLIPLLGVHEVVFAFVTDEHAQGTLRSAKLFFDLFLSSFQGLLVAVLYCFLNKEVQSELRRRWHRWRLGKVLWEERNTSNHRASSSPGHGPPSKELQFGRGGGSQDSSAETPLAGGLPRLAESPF
T2 sequence (Q61606 27-485): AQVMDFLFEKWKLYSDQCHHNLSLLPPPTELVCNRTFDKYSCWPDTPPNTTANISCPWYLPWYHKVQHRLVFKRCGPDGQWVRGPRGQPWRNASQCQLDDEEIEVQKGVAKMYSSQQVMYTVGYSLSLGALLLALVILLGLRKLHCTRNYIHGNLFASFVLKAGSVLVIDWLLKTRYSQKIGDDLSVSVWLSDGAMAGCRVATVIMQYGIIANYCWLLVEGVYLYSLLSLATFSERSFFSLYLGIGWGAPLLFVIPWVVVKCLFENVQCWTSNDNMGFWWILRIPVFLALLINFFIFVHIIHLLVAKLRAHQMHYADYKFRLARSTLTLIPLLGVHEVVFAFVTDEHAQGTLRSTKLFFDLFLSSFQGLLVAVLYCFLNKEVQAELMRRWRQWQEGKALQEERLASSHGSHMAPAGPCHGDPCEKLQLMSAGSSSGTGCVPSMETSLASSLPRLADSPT

fibrillation as measured by the Thioflavin T binding assay ([1]; pH 6, 96 hours, mechanical stress): did not demonstrate fibrillation
Thioflavin T fluorescence t = 0 h [1, 9]: 84.5 fluorescence units
Thioflavin T fluorescence t = 48 h [1, 9]: 89.5 fluorescence units
Thioflavin T fluorescence t = 96 h [1, 9]: 98.1 fluorescence units
Thioflavin T fluorescence t = 0 h [1, 10]: 188.4 fluorescence units
Thioflavin T fluorescence t = 48 h [1, 10]: 211.6 fluorescence units
Thioflavin T fluorescence t = 96 h [1, 10]: 231.4 fluorescence units
Thioflavin T fluorescence t = 0 h [1, 11]: 83.6 fluorescence units
Thioflavin T fluorescence t = 48 h [1, 11]: 90.9 fluorescence units
Thioflavin T fluorescence t = 96 h [1, 11]: 101.7 fluorescence units
Thioflavin T fluorescence t = 0 h [1, 12]: 70.1 fluorescence units
Thioflavin T fluorescence t = 48 h [1, 12]: 76.9 fluorescence units
Thioflavin T fluorescence t = 96 h [1, 12]: 83.9 fluorescence units
Thioflavin T fluorescence t = 0 h [1, 13]: 86.3 fluorescence units
Thioflavin T fluorescence t = 48 h [1, 13]: 87.5 fluorescence units
Thioflavin T fluorescence t = 96 h [1, 13]: 98.9 fluorescence units
% Main Peak Day 0 ([2]; Buffer P5 (pH 5)): 96.53%
4° C. % Main Peak ([2]; Buffer P5 (pH 5)): 96.93%
30° C. % Main Peak ([2]; Buffer P5 (pH 5)): 93.82%
40° C. % Main Peak ([2]; Buffer P5 (pH 5)): 91.59%
main peak changes ([2]; Buffer P5, pH 5 at 4-wk 30° C. vs 4° C.): less than 4%
main peak changes ([2]; Buffer P5, pH 5 at 4-wk 40° C. vs 4° C.): < 6%
% Main Peak Day 0 ([2]; Buffer P6 (pH 6)): 97.00%
4° C. % Main Peak ([2]; Buffer P6 (pH 6)): 95.89%
30° C. % Main Peak ([2]; Buffer P6 (pH 6)): 95.17%
40° C. % Main Peak ([2]; Buffer P6 (pH 6)): 90.57%
main peak changes ([2]; Buffer P6, pH 6 at 4-wk 30° C. vs 4° C.): < 1%
main peak changes ([2]; Buffer P6, pH 6 at 4-wk 40° C. vs 4° C.): < 6%
solubility [3]: maintains good solubility
30° C. vs 4° C. Recovery 4 wk ([3]; Buffer P5 (pH 5.0)): 102%
40° C. vs 4° C. Recovery 4 wk ([3]; Buffer P5 (pH 5.0)): 99%
30° C. vs 4° C. Recovery 4 wk ([3]; Buffer P6 (pH 6.0)): 101%
40° C. vs 4° C. Recovery 4 wk ([3]; Buffer P6 (pH 6.0)): 103%
Molecule: CC(C)C[C@H](NC(=O)[C@H](Cc1c[nH]c2ccccc12)NC(=O)[C@H](CCC(=O)O)NC(=O)[C@@H](NC(=O)[C@H](Cc1ccccc1)NC(=O)[C@H](CCC(=O)O)NC(=O)[C@H](CCC(N)=O)NC(=O)[C@H](C)NC(=O)[C@H](CCCCN)NC(=O)[C@H](CCCCN)NC(=O)C(C)(C)NC(=O)[C@H](CC(=O)O)NC(=O)[C@H](CC(C)C)NC(=O)[C@H](Cc1ccc(O)cc1)NC(=O)[C@H](CCCCN)NC(=O)[C@H](CO)NC(=O)[C@H](Cc1ccc(O)cc1)NC(=O)[C@H](CC(=O)O)NC(=O)[C@H](CO)NC(=O)[C@@H](NC(=O)[C@H](Cc1ccccc1)NC(=O)[C@@H](NC(=O)CNC(=O)[C@H](CCC(N)=O)NC(=O)[C@H](CO)NC(=O)[C@@H](N)Cc1ccc(O)cc1)[C@@H](C)O)[C@@H](C)O)C(C)C)C(=O)N[C@@H](CC(C)C)C(=O)N[C@@H](CCCCN)C(=O)N[C@H](C(=O)NCC(=O)N1CCC[C@H]1C(=O)N[C@@H](CO)C(=O)N[C@@H](CO)C(=O)NCC(=O)N[C@@H](C)C(=O)N1CCC[C@H]1C(=O)N1CCC[C@H]1C(=O)N[C@@H](CCCCN)C(=O)N[C@@H](CO)C(=O)N[C@@H](CCCCN)C(N)=O)[C@@H](C)O [SEQ ID NO: 2] (H-YSQGTFTSDYSKYLD[Aib]KKAQEFVEWLLKTGPSSGAPPKSK-NH2; N-terminus assumed)
Physical appearance ([3]; 4° C., 30° C. and 40° C., pH 5 and pH 6, over 4 weeks): clear to colorless, with no opalescences and no particles
Blood glucose levels (blood glucose levels; 0.3 μg/kg subcutaneously, 0 minutes): 140.2 ± 2.4 mg/dL
Blood glucose levels (blood glucose levels; 0.3 μg/kg subcutaneously, 15 minutes): 185.6 ± 7.5 mg/dL
Blood glucose levels (blood glucose levels; 0.3 μg/kg subcutaneously, 30 minutes): 193.3 ± 6.0 mg/dL
Blood glucose levels (blood glucose levels; 0.3 μg/kg subcutaneously, 60 minutes): 167.4 ± 6.6 mg/dL
Blood glucose levels (blood glucose levels; 0.3 μg/kg subcutaneously, 120 minutes): 147.0 ± 5.1 mg/dL
Blood glucose levels (blood glucose levels; 1 μg/kg subcutaneously, 0 minutes): 140.0 ± 2.0 mg/dL
Blood glucose levels (blood glucose levels; 1 μg/kg subcutaneously, 15 minutes): 200.6 ± 5.8 mg/dL
Blood glucose levels (blood glucose levels; 1 μg/kg subcutaneously, 30 minutes): 204.8 ± 8.9 mg/dL
Blood glucose levels (blood glucose levels; 1 μg/kg subcutaneously, 60 minutes): 161.9 ± 4.0 mg/dL
Blood glucose levels (blood glucose levels; 1 μg/kg subcutaneously, 120 minutes): 145.6 ± 3.9 mg/dL
Blood glucose levels (blood glucose levels; 3 μg/kg subcutaneously, 0 minutes): 141.5 ± 3.0 mg/dL
Blood glucose levels (blood glucose levels; 3 μg/kg subcutaneously, 15 minutes): 245.5 ± 10.0 mg/dL
Blood glucose levels (blood glucose levels; 3 μg/kg subcutaneously, 30 minutes): 265.6 ± 13.3 mg/dL
Blood glucose levels (blood glucose levels; 3 μg/kg subcutaneously, 60 minutes): 188.1 ± 9.3 mg/dL
Blood glucose levels (blood glucose levels; 3 μg/kg subcutaneously, 120 minutes): 143.9 ± 3.8 mg/dL
Blood glucose levels (blood glucose levels; 10 μg/kg subcutaneously, 0 minutes): 147.7 ± 4.4 mg/dL
Blood glucose levels (blood glucose levels; 10 μg/kg subcutaneously, 15 minutes): 252.3 ± 11.2 mg/dL
Blood glucose levels (blood glucose levels; 10 μg/kg subcutaneously, 30 minutes): 271.8 ± 13.8 mg/dL
Blood glucose levels (blood glucose levels; 10 μg/kg subcutaneously, 60 minutes): 202.1 ± 7.9 mg/dL
Blood glucose levels (blood glucose levels; 10 μg/kg subcutaneously, 120 minutes): 146.3 ± 5.5 mg/dL
ED50 (blood glucose levels; calculated on the 30 minute glucose measurements, 10 μg/kg taken as maximum, subcutaneous): 1.36 µg/kg

Ki [4]: 0.286 nM
EC50, hGR stimulated cAMP functional assay (HTRF, hGR-HEK293 cells) [5]: 0.0203 nM
Ki [6]: 1.82 nM
Ki [7]: 532 nM
Ki [8]: 2540 nM
B1: compound of SEQ ID NO: 2 (peptide)
peptide: YSQGTFTSDYSKYLD[Aib]KKAQEFVEWLLKTGPSSGAPPKSK-NH2
modifications: also: acetate salt
notes: Synthetic peptide made on Rink amide resin; acetate salt
